Measurements: patent US20130150430A1, “Methods for Impairing the P53/HDM2 Auto-Regulatory Loop in Multiple Myeloma Development Using mIR-192, mIR-194 and mIR-215” (THE OHIO STATE UNIVERSITY, priority 2011, published 2013)

Assays:
Assay type in all cases: cell-based, human
[1] = tested on: p53, MDM2, p21 and Puma in MM1s cells; assay: Western blot and densitometry in miRNA-transfected cells treated with MI-219; conditions: for p53 protein in cells not treated with MI-219: forced miRNA expression, untreated MM1s cells, p<0.05; for p53 re-expression with p21 and Puma up-regulation: miRNA-transfected MM1s cells, 24 hr of 2.5 μM MI-219
Experimental: FIG. 5A: Effects of miR-192, miR-194 and miR-215 on endogenous p53, p21 and MDM2 levels (Western blots) in MM1s cells treated with MI-219 at different concentrations.
FIG. 5B: Densitometric analysis only for p53 in untreated cells and for p53 and MDM2 protein levels in 2.5, 5 and 10 μM MI-219-treated cells. All experiments were performed in triplicate ±SD.
Samples were extracted in 15 mM Tris.Cl, pH 7.5/120 mM NaCl/25 mM KCl/2 mM EGTA/0.1 mM DTT/0.5% Triton X-100/[…] leupeptin/0.5 mM PMSF. Total protein (35 μg) from each sample was separated on a 4-20% Tris-HCl-Criterion precast gel Bio-Rad (cat#345-0032, Hercules, Calif.) and transferred to a poly(vinylidene difluoride) filter (Millipore). The filter was blocked in 5% nonfat dry milk, incubated with the specific antibody, washed, and probed with secondary antibody IgG conjugated to horseradish peroxidase (Santa Cruz Biotechnology), and developed with enhanced chemiluminescence (Amersham Pharmacia). Immunoblot analyses were performed using the following antibodies: p53 (sc-53394, Santa Cruz Biotechnology), MDM2 (sc-965, Santa Cruz Biotechnology), phospho-MDM2 (Cat#3521, Cell Signaling), c-MYC (cs-40, Santa Cruz Biotechnology), IGF-1 (sc-9013, Santa Cruz Biotechnology), IGF-1R (Cat#3027, Cell Signaling), total-Akt (Cat#9272, Cell signaling), phospho-Akt (Cat#4060, Cell Signaling), total-S6 (Cat#2217, Cell Signaling), phospho-S6 (Cat#2211, Cell Signaling), p21 (sc-817, Santa Cruz Biotechnology), α-PUMA (Cat#4976, Cell Signaling), GAPDH (Cat#2118, Cell Signaling). Filters were reprobed with enzyme-conjugated antibodies to GFP and β-actin (Santa Cruz Biotechnology).
MM cells (from MM subjects or from cell lines) non-transfected or transfected with pre- or ASOs miR-192, miR-215, miR-194 and Scr sequence as described above, were treated with MDM2 inhibitor (Nutlin3a and MI-219). Fresh CD138+ primary PCs isolated from new diagnosed MM subjects as previously described were maintained in culture for 24 hr and then treated for 24 hr with 10 μM Nutlin-3a (Cayman Chemical Company) or vehicle (DMSO). For transfected cells at 24 hrs after transfection MM cells were treated with 10 μM Nutlin-3a (Cayman Chemical Company) or DMSO vehicle only at different time points. MMIS cells were also treated with MI-219 solution (10% PEG400/3% Cremophor EL/87% 1×PBS) or only vehicle (10% PEG400/3% Cremophor EL/87% 1×PBS) at different concentration (2.5, 5 and 10 μM) for 24 hr and collected for RNA and protein extractions.

[2] = tested on: NCI-H929 and RPMI-8226 IGF-1 treated cells; assay: Adhesion assay on fibronectin in response to IGF-1; conditions: ectopic expression, vs Scr control
Experimental: FIG. 21A, FIG. 21B: MM1s and RPMI-8226 cells (pre-miRNA-192, -194, -215, Scr sequence-transfected) at 48 hr after transfection were harvested, treated with calcein and incubated with IGF-1 (50 ng/ml) and their ability to adhere to fibronectin plates was assessed by fluorescence assay. MM1s (FIG. 21A) and RPMI-8226 (FIG. 21B) with ectopic re-expression of miR-192, 215 and also miR-194 lost their ability to respond to IGF-1 treatment compare to Scr sequence.
Before adhesion, MM cell lines were starved overnight in RPMI 1640/0.5% BSA, without loss of viability. Cells (5×10^6/ml) were labeled with calcein-a.m. (Molecular Probes, Eugene, Oreg.) for 30 min at 37° C., washed, and resuspended in adhesion medium (RPMI 1640/10% FBS). Cells were stimulated with or without IGF-1 at 0-200 ng/ml for 20 min and added in triplicate to Fibronectin-coated 48 well plates (BD Biosciences #354506, Bedford, Mass.) at 37° C. for 30 min, and unbound cells were removed by four washes with RPMI1640. The absorbance of each well was measured using 492/520 nm filter set with a fluorescence plate reader (Wallac VICTOR2; Perkin-Elmer, Boston, Mass.).

KMS-28BM cells = assay: Cell cycle analysis by flow cytometry (sub-G1); conditions: 48 hr after transfection; Scr control ~3%
Experimental: FIG. 3G, FIG. 3H, FIG. 31, FIG. 3J: Flow cytometry analysis in MM1s (FIG. 3G), NCI-H929 (FIG. 3H) and KMS28BM (FIG. 31) cells (miR-192, miR-194, miR-215 and Scr transfected) at 48 hr of transfection, after first being arrested and synchronized in G2/M phase by Nocodazole for 16 hr. Apoptosis in KMS28BM was evaluated by caspase-3 activity (FIG. 3J). All experiments were performed in triplicate ±SD.
Nocodazole was (Sigma-Aldrich) was dissolved in DMSO as a stock solution of 10 mg/ml for cell cycle arrest in G2/M phase. Cells were first arrested and synchronized in G2/M phase by growth in 80 nM nocodazole for 16 hr. Cells were then washed and fresh medium added. After 6 hr, cell cycle analysis was performed by propidium iodide staining. Corresponding amounts of DMSO alone were added in control experiments. […] For DNA content analysis, cells were fixed in methanol at −20° C., washed again, rehydrated, re-suspended in PBS containing 50 μg/ml propidium iodide (PI) and 50 μg/ml RNase A, and analyzed by flow cytometry (Becton Dickinson). […] After the treatment the cells were analyzed using Caspase-Glo 3 Assay kit (Promega) according to the manufacturer's instructions. Continuous variables were expressed as mean values ± standard deviation (s.d.).

Substance	p53 protein in cells not treated with MI-219 [1]	p53 re-expression with p21 and Puma up-regulation [1]	cell adhesion [2]	sub-G1 fraction (indicative of cell death) (KMS-28BM cells)
miR-215: microRNA, p53-activated, down-regulated in MM; transfected as miRNA precursor (Ambion) or lentivector; SEQ ID NO:58 (AUGACCUAUGAAUUGACAGAC; listed as RNA, chemistry not given here; listed as Homo sapiens)	p53 became detectable	Dramatic p53 re-expression	significant decrease	30%
miR-192: microRNA, p53-activated, down-regulated in MM; transfected as miRNA precursor (Ambion) or lentivector; SEQ ID NO:56 (CUGACCUAUGAAUUGACAGCC; listed as RNA, chemistry not given here; listed as Homo sapiens)	p53 became detectable	Dramatic p53 re-expression	significant decrease	~25%
